The target in test [1] is PDK1 (Homo sapiens (Human), UniProt O15530). Description: PDK1 kinase assay (coupled PDK1/AKT/FAM-crosstide assay, IMAP fluorescence polarization). It counts as biochemical. How it is done: A PDK1 kinase assay was performed as follows. PDK1 (amino acids 51-359) and AKT2 (amino acids 140-467 fused to PIFtide, amino acids […]) were expressed as N-terminally tagged GST fusion proteins in insect cells and purified to homogeneity. Enzyme activity was determined in a coupled PDK1/AKT/FAM-crosstide assay and phosphorylation of FAM-crosstide was determined by standard IMAP protocol (Molecular Devices). For inhibition studies, compounds were titrated 4-fold in DMSO and diluted 40-fold into assay buffer (10 mM Tris HCl pH7.2; 10 mM MgCl2; 0.01% Triton X-100; 1 mM DTT) containing PDK1, AKT2, and FAM-crosstide (final concentrations: 0.75 nM PDK1, 10 nM unphosphorylated AKT2, and 100 nM crosstide substrate). The kinase reaction was initiated by adding ATP to a final concentration of 40 μM of PDK1 and incubated at 25° C. for 30 min. To detect assay product, the kinase reaction was combined with Progressive Binding Solution (1:600 Progressive Binding Reagent, 50% Buffer A, 50% Buffer B, Molecular Devices) in a 1:3 ratio. The mixture was incubated for 2 hours at 25° C. and the plate was scanned on an Analyst AD with excitation at 485 nm and emission at 530 nm. The fluorescence polarization value “P” is defined by the equation below. The value “mP” is generated by multiplying the P value for each reaction well by a factor of 1000. The value “ΔmP” for each well is the mP value for that well minus the mP value for the average negative control. P=(Fpar−Fperp)/(Fpar+Fperp) Eq.:
Where “par” is fluorescence intensity parallel to the excitation plane; and “perp” is fluorescence intensity perpendicular to the excitation plane. ΔmP values were plotted as a function of compound concentration and the data were analyzed with a 4-parameter fit using GraphPad Prism software.
Background: Fluorescence polarisation rises when a labelled molecule tumbles more slowly, as on binding a larger partner.

The test system of test [2] is phospho-akt (Thr308) in PC-3 cells. Description: Inhibition of phospho-akt (Thr308) in PC-3 cells, MSD phospho-akt 308 ELISA kit. It counts as cell-based. Conditions: 2 hours, no serum, read-out: EC50. The method, boiled down: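 Read-out is MSD electrochemiluminescence of Akt phosphorylated at Thr308 in lysates of PC-3 cells treated 2 h with compound in serum-free medium. Wortmannin at 5 μM defined the low control and DMSO the high control.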
In general terms: In an ELISA, binding on a coated surface is turned into a signal by an enzyme label.

[3] abbreviates: inhibition of phospo-PDK1 in vitro.
The mark [4] stands for this setting: Homo sapiens, inhibition of P308 Akt in PC-3 cells, MSD.
The mark [5] stands for this setting: Homo sapiens, inhibition of P308 Akt in PC-3 cells using MSD.
Where [6] appears, read: inhibition of P308 Akt in PC-3 cells using MSD.

SMILES strings stand for the structures. pEC50, pIC50: −log10 of the molar value. Where a name gives a salt, the structure may show the parent alone. Read-outs that look alike come from different tables or passages of the source. Where only a bound is given, the exact number is not on record here.

A word on the pIC50: it is the negative decadic logarithm of the IC50, by convention in mol/L. Read a high pIC50 as a small IC50. One may read the pEC50 as −log10 of the EC50, conventionally taken in molar units.

PDK1, sequence (O15530 51-359): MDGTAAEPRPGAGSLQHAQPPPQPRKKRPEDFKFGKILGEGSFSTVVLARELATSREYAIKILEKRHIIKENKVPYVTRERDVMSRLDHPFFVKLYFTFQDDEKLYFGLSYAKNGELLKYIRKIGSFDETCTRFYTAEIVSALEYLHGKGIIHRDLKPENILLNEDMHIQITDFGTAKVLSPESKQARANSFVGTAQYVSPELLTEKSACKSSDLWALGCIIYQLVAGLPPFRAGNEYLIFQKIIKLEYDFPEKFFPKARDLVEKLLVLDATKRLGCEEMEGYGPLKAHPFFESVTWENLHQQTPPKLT

In turn, `CC(C)Nc1ncnc2ccc(-c3ccc(CNc4ncccc4C(=O)NCc4ccc(F)c(F)c4)s3)cc12` [Example 4.12, N-(3,4-difluorobenzyl)-2-(((5-(4-(isopropylamino)quinazolin-6-yl)thiophen-2-yl)methyl)amino)nicotinamide] had a pIC50 in test [1] (setting [3]) of more than 7.00. For the same compound, the negative logarithm of the EC50 (pEC50) in test [2] (setting [4]) was 5.00 to 6.00.
Compound `Nc1ncnc2ccc(-c3ccc(CNc4ncccc4C(=O)Nc4ccc(F)c(Cl)c4)s3)cc12` [Example 3.49, 2-({[5-(4-aminoquinazolin-6-yl)thiophen-2-yl]methyl}amino)-N-(3-chloro-4-fluorophenyl) pyridine-3-carboxamide (TFA salt)] had a pIC50 in test [1] (setting [3]) of 6.00 to 7.00. Moreover, the pEC50 in test [2] (setting [4]) was 5.00 to 6.00.
As for `O=C(NCc1ccc(F)cc1)c1cccnc1NCc1ccc(-c2cnc3[nH]ncc3c2)cc1` [Example 393, 2-(4-(1H-pyrazolo[3,4-b]pyridin-5-yl)benzylamino)-N-(4-fluorobenzyl) nicotinamide], the pIC50 in test [1] (inhibition of PDK1 in vitro) is more than 7.00. Besides, the pEC50 in test [2] (setting [5]) was 5.00 to 6.00.
Turning to `C[C@H](NC(=O)c1cc(C#N)cnc1NCc1ccc(-c2cnc(N)c(C(=O)O)n2)cc1)c1ccc(F)cc1` [Example 207, (S)-3-amino-6-(4-((5-cyano-3-(1-(4-fluorophenyl)ethylcarbamoyl)pyridin-2-ylamino)methyl)phenyl)-pyrazine-2-carboxylic acid], in test [1] (inhibition of PDK1 in vitro), the negative logarithm of the IC50 (pIC50) was more than 7.00. In addition, the negative-log EC50 (pEC50) in test [2] (setting [5]) is less than 5.00.
On to `C[C@H](NC(=O)c1cc(C#N)cnc1NCc1ccc(-c2c[nH]c3ncnc(N)c23)c(F)c1)c1ccc(F)cc1` [Example 100, (S)-2-(4-(4-amino-7H-pyrrolo[2,3-d]pyrimidin-5-yl)-3-fluorobenzylamino)-5-cyano-N-(1-(4-fluorophenyl)ethyl) nicotinamide], for which the negative-log IC50 (pIC50) in test [1] (inhibition of PDK1 in vitro) was more than 7.00. For the same compound, in test [2] (setting [6]), the negative logarithm of the EC50 (pEC50) was 5.00 to 6.00.
With `C[C@H](NC(=O)c1cccnc1NCc1ncc(-c2ccc3ncc4ncn(C)c4c3c2)s1)c1ccc(F)c(F)c1` [Example 385, N-[(S)-1-(3,4-Difluoro-phenyl)-ethyl]-2-{[5-(1-methyl-1H-imidazo[4,5-c]quinolin-8-yl)-thiazol-2-ylmethyl]-amino}-nicotinamide], the negative-log IC50 (pIC50) in test [1] (inhibition of PDK1 in vitro) was more than 7.00. For the same compound, the pEC50 in test [2] (setting [5]) is more than 6.00.
For `CCCc1cnc(NCc2ccc(-c3ccc4ncnc(N)c4c3)s2)c(C(=O)NCc2ccc(F)c(F)c2)n1` [Ex. 10.7, 3-({[5-(4-aminoquinazolin-6-yl)thiophen-2-yl]methyl}amino)-N-(3,4-difluorobenzyl)-6-propylpyrazine-2-carboxamide], the pIC50 in test [1] (setting [3]) is 5.30 to 6.00. Also, the negative-log EC50 (pEC50) in test [2] (setting [4]) was 5.00 to 6.00.
As to `Cc1nc(C)c(/C=C2\C(=O)Nc3cc(/C=C/CNc4ncccc4C(=O)NCc4ccc(F)c(F)c4)ccc32)[nH]1` [Example 15.14, N-(3,4-Difluoro-benzyl)-2-((E)-3-{3-[1-(2,5-dimethyl-3H-imidazol-4-yl)-meth-(Z)-ylidene]-2-oxo-2,3-dihydro-1H-indol-6-yl}-allylamino)-nicotinamide], the pIC50 in test [1] (setting [3]) is more than 7.00. Besides, the pEC50 in test [2] (setting [4]) is more than 6.00.
For the compound `C[C@H](NC(=O)c1nc(C#N)cnc1NCc1ccc(-c2cnc(N)c(CCCN)n2)cc1)c1ccc(F)c(F)c1` [Example 94, 3-{4-[5-Amino-6-(3-amino-propyl)-pyrazin-2-yl]-benzyl-amino}-6-cyano-pyrazine-2-carboxylic acid [(S)-1-(3,4-difluoro-phenyl)-ethyl]-amide], the pIC50 in test [1] (inhibition of PDK1 in vitro) was more than 7.00. Besides, the pEC50 in test [2] (setting [5]) is more than 6.00.
The corresponding values for `Nc1ncnc2c1c(-c1ccc(CNc3ncc(C(F)(F)F)cc3C(=O)Nc3ccc(F)cc3)cc1)cn2CCO` [Example 324, 2-(4-(4-amino-7-(2-hydroxyethyl)-7H-pyrrolo [2,3-d]pyrimidin-5-yl)benzylamino)-N-(4-fluorophenyl)-5-(trifluoromethyl)nicotinamide] are more than 7.00 and more than 6.00.
For the compound `CC(C)Oc1cc(CNc2ncccc2C(=O)NCC2CC2)cc(-c2c[nH]c3ncc(C(=O)NC4CC4)cc23)c1` [Example 4.1.11, N-cyclopropyl-3-{3-[({3-[(cyclopropylmethyl)carbamoyl]pyridin-2-yl}amino)methyl]-5-(propan-2-yloxy)phenyl}-1H-pyrrolo[2,3-b] pyridine-5-carboxamide], the pIC50 in test [1] (setting [3]) was 6.00 to 7.00. The pEC50 in test [2] (setting [4]) was 5.00 to 6.00.
Compound `C[C@H](NC(=O)c1cc(C#N)cnc1NCc1ccc(-c2nc3c(N)ncnc3[nH]2)cc1)c1ccc(F)cc1` [Example 113, (S)-2-(4-(6-amino-9H-purin-8-yl)benzylamino)-5-cyano-N-(1-(4-fluorophenyl)ethyl) nicotinamide] had a pIC50 in test [1] (inhibition of PDK1 in vitro) of more than 7.00. Besides, the pEC50 in test [2] (setting [6]) was less than 5.00.
Turning to `Nc1ncnn2c(-c3ccc(CNc4ncc(C(F)(F)F)cc4C(=O)NCc4ccc(F)c(F)c4)cc3)ccc12` [Example 179, 2-[4-(4-Amino-pyrrolo [2,1-f][1,2,4]triazin-7-yl)-benzylamino]-N-(3,4-difluoro-benzyl)-5-trifluoromethyl-nicotinamide], the pIC50 in test [1] (inhibition of PDK1 in vitro) was 6.00 to 7.00. Further, in test [2] (setting [5]), the pEC50 was 5.00 to 6.00.
Regarding `Nc1ncnc2ccc(-c3ccc(CNc4ncccc4C(=O)Nc4cc(F)cc(F)c4)s3)cc12` [Example 3.85, 2-({[5-(4-aminoquinazolin-6-yl)thiophen-2-yl]methyl}amino)-N-(3,5-difluorophenyl)-pyridine-3-carboxamide (TFA salt)], the negative-log IC50 (pIC50) in test [1] (setting [3]) was 5.30 to 6.00. Further, the negative-log EC50 (pEC50) in test [2] (Homo sapiens, PC-3, 2 h, inhibition of P308 Akt in PC-3 cells, MSD) is less than 5.00.
As for `Nc1ncnc2ccc(-c3ccc(CNc4ncccc4C(=O)NCc4ccc(Cl)c(Cl)c4)s3)cc12` [Example 3.29, 2-({[5-(4-aminoquinazolin-6-yl)thiophen-2-yl]methyl}amino)-N-(3,4-dichlorobenzyl) pyridine-3-carboxamide (TFA salt)], in test [1] (setting [3]), the pIC50 is 6.00 to 7.00. Besides, in test [2] (setting [4]), the negative logarithm of the EC50 (pEC50) is 5.00 to 6.00.
In test [1] (setting [3]), `C[C@H](NC(=O)c1cc(C#N)cnc1NCc1ccc(-c2ccc3ncnc(N)c3c2)s1)c1ccc(F)cc1` [Example 8.8.3, 2-({[5-(4-aminoquinazolin-6-yl)thiophen-2-yl]methyl}amino)-5-cyano-N-[(1S)-1-(4-fluorophenyl)ethyl] pyridine-3-carboxamide] gave a pIC50 of more than 7.00. Besides, the pEC50 in test [2] (setting [4]) is more than 6.00.
On the same counts, the results for `Nc1ncnc2ccc(-c3ccc(CNc4ncc(C(F)(F)F)nc4C(=O)NCc4ccc(F)c(F)c4)s3)cc12` [Example 10.10, 3-(((5-(4-aminoquinazolin-6-yl)thiophen-2-yl)methyl)amino)-N-(3,4-difluorobenzyl)-6-(trifluoromethyl)pyrazine-2-carboxamide] are more than 7.00 and less than 5.00.
`C[C@H](NC(=O)c1nc(C#N)cnc1N[C@@H](CO)c1ccc(-c2cnc3[nH]nc(N)c3c2)cc1)c1ccc(F)c(F)c1` [Example 351, 3-((R)-1-(4-(3-amino-1H-pyrazolo[3,4-b]pyridin-5-yl)phenyl)-2-hydroxy-ethylamino)-6-cyano-N-((S)-1-(3,4-difluorophenyl)ethyl)pyrazine-2-carboxamide] had a negative-log IC50 (pIC50) in test [1] (inhibition of PDK1 in vitro) of 5.30 to 6.00. Also, in test [2] (setting [5]), the pEC50 is less than 5.00.
The corresponding values for `C[C@H](NC(=O)c1cc(C(F)(F)F)cnc1NCc1ccc(-c2cnc3[nH]ncc3c2)cc1)c1ccc(F)cc1` [Example 246, N-[(S)-1-(4-Fluoro-phenyl)-ethyl]-2-[4-(1H-pyrazolo[3,4-b]pyridin-5-yl)-benzylamino]-5-trifluoromethyl-nicotinamide] are more than 7.00 and more than 6.00.
In test [1] (setting [3]), `COc1ccnc(NCc2ccc(-c3ccc4ncnc(N)c4c3)s2)c1C(=O)NCc1ccc(F)c(F)c1` [Ex. 7.4, 2-({[5-(4-aminoquinazolin-6-yl)thiophen-2-yl]methyl}amino)-N-(3,4-difluorobenzyl)-4-methoxypyridine-3-carboxamide] had a negative-log IC50 (pIC50) of 6.00 to 7.00. In addition, the negative logarithm of the EC50 (pEC50) in test [2] (setting [4]) is less than 5.00.
On the same counts, the results for `CC(C)NC(=O)c1cccnc1NCc1cccc(-c2c[nH]c3ncccc23)c1` [Example 1.10, N-(propan-2-yl)-2-{[3-(1H-pyrrolo [2,3-b]pyridin-3-yl)benzyl]amino} pyridine-3-carboxamide] are less than 5.30 and 5.00 to 6.00.
On the same counts, the results for `Nc1ncnc2ccc(-c3ccc(CNc4nccc(C(F)(F)F)c4C(=O)NCc4ccc(F)c(F)c4)s3)cc12` [Example 8.12.4, 2-({[5-(4-aminoquinazolin-6-yl)thiophen-2-yl]methyl}amino)-N-(3,4-difluorobenzyl)-4-(trifluoromethyl)pyridine-3-carboxamide] are less than 5.30 and 5.00 to 6.00.
